Measurements: ChEMBL document CHEMBL6074678, “Selectively Antagonizing the NOD1-Mediated Inflammatory Signaling Pathway Mitigates the Gastric Inflammation Induced by Helicobacter pylori Infection” (J Med Chem, 2024)
Calls of active or inactive are those of the source. No cut-off for these calls is given here.

Legend:
[1] = biological target: T1, Nucleotide-binding oligomerization domain-containing protein 1 (Homo sapiens) (UniProt Q9Y239); test: Antagonist activity at human NOD1 expressed in HEK-Blue cells assessed as decrease in SEAP secretion incubated for 3 hrs followed by C12-iE-DAP stimulation for 20 hrs by spectrophotometry; format: cell-based; details: HEK-Blue hNOD1, filed as antagonist, time 23.0 hrs
T1 sequence (whole entry): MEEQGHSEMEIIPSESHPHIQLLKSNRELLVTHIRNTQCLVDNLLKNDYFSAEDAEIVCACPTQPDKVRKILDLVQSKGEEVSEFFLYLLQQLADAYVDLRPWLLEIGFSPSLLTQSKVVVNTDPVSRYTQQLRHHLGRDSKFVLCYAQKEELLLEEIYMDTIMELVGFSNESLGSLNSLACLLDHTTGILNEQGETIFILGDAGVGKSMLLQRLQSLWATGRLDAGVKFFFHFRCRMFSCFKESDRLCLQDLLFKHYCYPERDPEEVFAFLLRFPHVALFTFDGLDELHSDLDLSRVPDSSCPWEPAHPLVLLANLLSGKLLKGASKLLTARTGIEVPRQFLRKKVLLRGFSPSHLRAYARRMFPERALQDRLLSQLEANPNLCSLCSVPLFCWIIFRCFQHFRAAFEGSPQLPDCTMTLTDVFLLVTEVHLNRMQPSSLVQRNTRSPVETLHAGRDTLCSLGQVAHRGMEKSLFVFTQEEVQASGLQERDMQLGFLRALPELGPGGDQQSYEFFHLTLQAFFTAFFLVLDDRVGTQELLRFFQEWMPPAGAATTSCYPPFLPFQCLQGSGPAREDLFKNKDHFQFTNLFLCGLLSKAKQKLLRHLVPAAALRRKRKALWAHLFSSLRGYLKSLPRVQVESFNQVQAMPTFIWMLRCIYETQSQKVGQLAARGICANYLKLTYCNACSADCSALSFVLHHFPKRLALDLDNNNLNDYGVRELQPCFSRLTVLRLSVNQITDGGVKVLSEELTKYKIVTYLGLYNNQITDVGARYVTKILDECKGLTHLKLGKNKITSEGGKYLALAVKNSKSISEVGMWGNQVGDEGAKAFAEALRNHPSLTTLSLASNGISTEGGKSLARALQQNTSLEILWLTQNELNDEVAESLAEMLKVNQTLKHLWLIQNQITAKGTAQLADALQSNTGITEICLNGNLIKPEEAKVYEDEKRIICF

[2] = biological target: T2, Nucleotide-binding oligomerization domain-containing protein 1 (Mus musculus) (UniProt Q8BHB0); test: Antagonist activity at mouse NOD1 expressed in HEK-Blue cells assessed as decrease in SEAP secretion incubated for 3 hrs followed by C12-iE-DAP stimulation for 20 hrs by spectrophotometry; format: cell-based; details: HEK-Blue mNOD1, filed as antagonist, time 23.0 hrs
T2 sequence (whole entry): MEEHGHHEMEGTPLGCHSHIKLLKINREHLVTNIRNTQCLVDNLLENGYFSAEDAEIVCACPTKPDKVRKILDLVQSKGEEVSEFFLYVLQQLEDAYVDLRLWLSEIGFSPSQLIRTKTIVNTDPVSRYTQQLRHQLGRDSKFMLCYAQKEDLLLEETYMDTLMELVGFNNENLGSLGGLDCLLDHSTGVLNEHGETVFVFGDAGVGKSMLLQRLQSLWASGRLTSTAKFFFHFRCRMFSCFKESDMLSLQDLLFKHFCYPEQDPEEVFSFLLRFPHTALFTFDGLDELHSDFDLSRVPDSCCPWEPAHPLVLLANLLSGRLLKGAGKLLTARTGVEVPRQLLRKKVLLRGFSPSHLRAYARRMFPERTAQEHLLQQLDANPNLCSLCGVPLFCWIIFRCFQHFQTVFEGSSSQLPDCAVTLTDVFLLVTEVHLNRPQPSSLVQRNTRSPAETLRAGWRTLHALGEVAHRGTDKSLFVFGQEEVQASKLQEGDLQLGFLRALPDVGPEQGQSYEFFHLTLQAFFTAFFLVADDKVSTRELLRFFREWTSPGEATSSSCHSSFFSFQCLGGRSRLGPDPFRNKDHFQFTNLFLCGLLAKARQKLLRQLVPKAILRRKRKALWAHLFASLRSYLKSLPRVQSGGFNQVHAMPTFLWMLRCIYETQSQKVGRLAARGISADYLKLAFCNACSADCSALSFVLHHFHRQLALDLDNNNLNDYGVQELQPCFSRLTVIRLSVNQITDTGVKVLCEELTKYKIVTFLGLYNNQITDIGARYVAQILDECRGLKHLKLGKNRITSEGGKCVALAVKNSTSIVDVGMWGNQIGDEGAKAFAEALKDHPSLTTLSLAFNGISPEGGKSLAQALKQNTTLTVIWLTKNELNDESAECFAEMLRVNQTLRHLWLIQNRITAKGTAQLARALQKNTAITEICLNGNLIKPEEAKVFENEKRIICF

[3] = biological target: T3, Nucleotide-binding oligomerization domain-containing protein 1 (Homo sapiens, UniProt Q9Y239); test: Antagonist activity at human NOD1 expressed in HEK293 cells assessed as decrease in NF-kappaB activation; format: cell-based
T3 sequence (Q9Y239 whole entry): T1 sequence (whole entry)

THP-1 [4] = test: Anti-inflammatory activity in human THP-1 cells assessed as decrease in IL-6 mRNA level at 0.1 uM pretreated for 1 hr followed by C12-iE-DAP stimulation for 2 hrs by RT-qPCR analysis relative to control; format: functional; set-up: scale not given: the % may be the effect or the level left; details: time 3 hrs
THP-1 [5] = test: Anti-inflammatory activity in human THP-1 cells assessed as decrease in TNF-alpha mRNA level at 0.1 uM pretreated for 1 hr followed by C12-iE-DAP stimulation for 2 hrs by RT-qPCR analysis relative to control; format: functional; set-up: scale not given: the % may be the effect or the level left; details: time 3 hrs
[6] = Anti-inflammatory activity in mouse BMDM cells assessed as decrease in TNF-alpha mRNA level at 0.1 uM pretreated for 1 hr followed by C12-iE-DAP stimulation for 2 hrs by RT-qPCR analysis relative to control; format: functional; set-up: scale not given: the % may be the effect or the level left; details: time 3 hrs
THP-1 [7] = test: Anti-inflammatory activity in human THP-1 cells assessed as decrease in CXCL8 mRNA level at 5 uM pretreated for 1 hr followed by infection with Helicobacter pylori for 2 hrs by RT-qPCR analysis; format: functional, cell-based; details: time 3.0 hrs
BMDM = test: Anti-inflammatory activity in mouse BMDM cells assessed as decrease in CXCL8 mRNA level at 1 to 5 uM pretreated for 1 hr followed by infection with Helicobacter pylori for 2 hrs by RT-qPCR analysis; format: functional, cell-based; details: dose 1-5 µM, time 3.0 hrs
[8] = Volume of distribution at steady state in C57BL/6 mouse at 2 mg/kg, iv by LC-MS/MS analysis; format: ADME, organism-based; details: in vivo, read-out: Vdss
[9] = Cmax in C57BL/6 mouse at 20 mg/kg, po by LC-MS/MS analysis; format: ADME, organism-based; details: in vivo

- Activity [1]: Dose-dependent-effect
- Activity [2]: Dose-dependent-effect
- IC50 [3]: 0.8 nM
- Vd [8]: 1.33 L/kg
- Cmax [9]: 44.6 ng/mL
SMILES: CS(=O)(=O)c1ccc2nc(Cl)n(-c3ccc(Cl)c(NS(=O)(=O)c4c(F)cccc4F)c3)c(=O)c2c1
- Activity (THP-1 [4]): ~100%
- Activity (THP-1 [5]): ~100%
- Activity [6]: ~100%
- Activity (THP-1 [7]): Active
- Activity (BMDM): Active
